Source: US20230348415A1, “BISPECIFIC ANTAGONISTS OF RETINOL-BINDING PROTEIN 4 THAT STABILIZE TRANSTHYRETIN TETRAMERS, THEIR PREPARATION, AND USE IN THE TREATMENT OF COMMON AGE-RELATED COMORBIDITIES” (The Trustees of Columbia University in the City of New York, priority 2020, published 2023)

Molecular target: serum RBP4 (Mus musculus (Mouse), UniProt Q00724)
Assay: Serum RBP4 after long-term oral dosing in Abca4−/− mice
Type: in vivo
Details: 25 mg/kg daily in chow
Procedure: FIG. 7. Effect of the long-term oral (±)-44 administration in Abca4^−/− mice on serum RBP4 levels. Serum RBP4 levels were measured in vehicle-treated Abca4^−/− mice (squares) and (±)-44-treated Abca4-mice (triangles) at the indicated time points. […] Error bars show S.D. Each data point on the graph represents a serum RBP4 concentration from an individual animal.
Blood samples were collected from a tail vein. Whole blood was drawn into a centrifuge tube and was allowed to clot at room temperature for 30 minutes followed by centrifugation at 2000 g for 15 minutes at […] to collect serum. Aliquots of plasma samples collected in the mouse pharmacokinetic study were analyzed for the RBP4 concentration using the RBP4 (mouse/rat) dual ELISA kit (AdipoGen, San Diego, CA) following the manufacturer's instructions. In adi-hRBP4 transgenic mouse experiments, blood samples were collected from a tail vein. Whole blood was drawn into a centrifuge tube and was allowed to clot at room temperature for 30 min followed by centrifugation at 2000 g for 15 min at +4° C. to collect serum. Mouse serum RBP4 (produced predominantly in the liver) was measured using the RBP4 (mouse/rat) dual ELISA kit (AdipoGen, San Diego, CA; catalog number AG-45A-0012YTP-KI01)
(±)-44 was formulated into a Picolab 5053 chow to ensure a daily dosing of 25 mg/kg of (±)-44. […]

**Q.** What does the source list for Cc1cc(C(=O)O)nc(N2CCC(COc3ccccc3C(F)(F)F)C2)n1 (racemic) [Compound (±)-44, (±)-6-Methyl-2-(3-((2-(trifluoromethyl)phenoxy)methyl)pyrrolidin-1-yl)pyrimidine-4-carboxylic Acid]?
**A.** serum RBP4 reduction compared to untreated Abca4−/− mice (week 12): 82%; serum RBP4 reduction compared with baseline (week 12, Abca4−/− mice): 79%
